# Source: patent US6812229B1, “Carbamate derivative and agricultural/horticultural fungicide” (Kumiai Chemical Industry Co., Ltd., priority 1999, dated 2004)
# Assays:
# Erysiphe graminis = experiment: Test for preventive effect on wheat powdery mildew; format: in vivo; details: wheat seedlings (Norin-61-go), two-leaf stage, 500 ppm active ingredient, wettable powder, total diseased area of first leaves 10 days after inoculation
# Method: 10 Wheat seeds (variety: Norin-61-go) were sown in each plastic pot having a diameter of 6 cm, and grown in a greenhouse. Wheat seedlings which reached a two-leaf stage were treated with 10 ml per pot of aqueous solutions of wettable powders prepared in accordance with Formulation Example 2, at a concentration of 500 ppm in terms of the active ingredients, and dried in the air. Then, the seedlings were inoculated with Erysiphe graminis spore and controlled in a greenhouse. 10 Days after the inoculation, the total diseased area of the first leaves in each pot was observed and evaluated on the basis of the standards shown in Table 21.
# Septoria nodorum = experiment: Test for preventive effect on Septoria leaf blotch of wheat; format: in vivo; details: wheat seedlings (Norin-61-go), two-leaf stage, 50 ppm active ingredient, 10 ml per pot, evaluated 10 days after inoculation with Septoria nodorum
# Source text: [table] 10 Wheat seeds (variety: Norin-61-go) were sown in each plastic pot having a diameter of 6 cm, and grown in a greenhouse. […] Then, the seedlings were inoculated with Septoria nodorum […] controlled in a greenhouse. 10 Days after the inoculation, the total diseased area of the first leaves in each pot was observed and evaluated on the basis of the standards shown in Table 21.
# Botrytis cinerea = experiment: Test for preventive effect on cucumber gray mold; format: in vivo; details: cucumber seedlings (Sagami-hanziro), cotyledon stage, 500 ppm active ingredient, 10 ml per pot, evaluated 3 days after inoculation with Botrytis cinerea, 22° C moist chamber
# Method: 4 cucumber seeds (variety: Sagami-hanziro) were sown in each plastic pot having a diameter of 6 cm and grown in a greenhouse. Cucumber young seedlings which reached a cotyledon stage were treated with 10 ml per pot of aqueous solutions of wettable powders prepared in accordance with Formulation Example 2, at a concentration of 500 ppm in terms of the active ingredients and dried in the air. Then, the seedlings were inoculated with Botrytis cinerea spore by putting a paper disc soaked with the spore suspension on the surface of the cucumber cotyledons, and the seedlings were immediately placed in a moist chamber of 22° C. 3 Days after the inoculation, the total diseased area of the cotyledons in each pot was observed and evaluated on the basis of the standards shown in Table 24.
melting point [°C],Compound,Evaluation (Erysiphe graminis),Evaluation (total diseased area of the first leaves) (Septoria nodorum),Evaluation (total diseased area of the cotyledons) (Botrytis cinerea)
,"COC(=O)NCc1cc(C(C)=NOCc2ccccc2)ccc1Cl (single isomer, unassigned) [A-80]",A (No diseased area),A (No diseased area),
,"COC(=O)NCc1cc(C(C)=NOCc2cccc(Cl)c2)ccc1Cl (single isomer, unassigned) [A-85]",A (No diseased area),B (Diseased area of less than 5%),
,"COC(=O)NCc1cc(C(C)=NOCc2ccc(Cl)cc2)ccc1Cl (single isomer, unassigned) [A-86]",A (No diseased area),,
104 to 107,"CON=C(C#N)c1ccc(Cl)c(CNC(=O)OC)c1 [A-3, 2-[4-chloro-3-(methoxycarbonylaminomethyl)phenyl]-2-methoxyiminoacetonitrile]",A (No diseased area),B (Diseased area of less than 5%),
,C=CCON=C(C)c1cccc(CNC(=O)OC)c1 [A-37],A (No diseased area),,
,COC(=O)NCc1cccc(C(C)=NOCc2ccccc2)c1 [A-38],A (No diseased area),,
,CCON=C(C)c1cccc(CNC(=O)OC)c1 [A-39],A (No diseased area),,
,"CON=C(C)c1cccc(CNC(=O)OC)c1 [A-40, Methyl N-[3-(1-methoxyiminoethyl)benzyl]carbamate]",A (No diseased area),,
,C=CCON=C(c1ccccc1)c1cccc(CNC(=O)OC)c1 [A-41],B (Diseased area of less than 5%),,
,CON=C(c1ccccc1)c1cccc(CNC(=O)OC)c1 [A-42],A (No diseased area),,
,CCON=C(c1ccccc1)c1cccc(CNC(=O)OC)c1 [A-43],A (No diseased area),,
124 to 127,"COC(=O)NCc1cc(C(C)=NO)ccc1Cl [A-45, Methyl N-[2-chloro-5-(1-hydroxyiminoethyl)benzyl]carbamate]",,,
,CON=C(C)c1ccc(Cl)c(CNC(=O)OC)c1 [A-46],A (No diseased area),,
,CCON=C(C)c1ccc(Cl)c(CNC(=O)OC)c1 [A-49],A (No diseased area),,
,CCCON=C(C)c1ccc(Cl)c(CNC(=O)OC)c1 [A-50],A (No diseased area),,
,COC(=O)NCc1cc(C(C)=NOC(C)C)ccc1Cl [A-51],A (No diseased area),B (Diseased area of less than 5%),
,COC(=O)NCc1cc(C(C)=NOC(C)(C)C)ccc1Cl [A-55],A (No diseased area),,
,C=CCON=C(C)c1ccc(Cl)c(CNC(=O)OC)c1 [A-58],A (No diseased area),B (Diseased area of less than 5%),
,C#CCON=C(C)c1ccc(Cl)c(CNC(=O)OC)c1 [A-61],A (No diseased area),B (Diseased area of less than 5%),

melting point [°C],Compound,Evaluation (Erysiphe graminis),Evaluation (total diseased area of the first leaves) (Septoria nodorum),Evaluation (total diseased area of the cotyledons) (Botrytis cinerea)
,COC(=O)NCc1cc(C(C)=NOCCCc2ccccc2)ccc1Cl [A-62],A (No diseased area),B (Diseased area of less than 5%),
,COC(=O)NCc1cc(C(C)=NOCC(=O)OC(C)(C)C)ccc1Cl [A-64],B (Diseased area of less than 5%),A (No diseased area),
,COC(=O)NCc1cc(C(C)=NOCc2ccccc2F)ccc1Cl [A-81],A (No diseased area),B (Diseased area of less than 5%),
,COC(=O)NCc1cc(C(C)=NOCc2cccc(F)c2)ccc1Cl [A-82],A (No diseased area),B (Diseased area of less than 5%),
101 to 103,"COC(=O)NCc1cc(C(C)=NOCc2ccc(F)cc2)ccc1Cl [A-83, Methyl N-{2-chloro-5-[1-(4-fluorobenzyloxyimino)ethyl]benzyl}carbamate]",A (No diseased area),A (No diseased area),
,COC(=O)NCc1cc(C(C)=NOCc2ccccc2Br)ccc1Cl [A-87],A (No diseased area),B (Diseased area of less than 5%),
,COC(=O)NCc1cc(C(C)=NOCc2cccc(Br)c2)ccc1Cl [A-88],A (No diseased area),B (Diseased area of less than 5%),
,COC(=O)NCc1cc(C(C)=NOCc2ccc(Br)cc2)ccc1Cl [A-89],A (No diseased area),B (Diseased area of less than 5%),
,COC(=O)NCc1cc(C(C)=NOCc2ccccc2C)ccc1Cl [A-90],A (No diseased area),A (No diseased area),
,COC(=O)NCc1cc(C(C)=NOCc2cccc(C)c2)ccc1Cl [A-91],A (No diseased area),B (Diseased area of less than 5%),
,COC(=O)NCc1cc(C(C)=NOCc2ccc(C)cc2)ccc1Cl [A-92],A (No diseased area),B (Diseased area of less than 5%),
,COC(=O)NCc1cc(C(C)=NOCc2ccc(C(C)(C)C)cc2)ccc1Cl [A-98],A (No diseased area),A (No diseased area),
,COC(=O)NCc1cc(C(C)=NOCc2ccccc2C(F)(F)F)ccc1Cl [A-99],A (No diseased area),B (Diseased area of less than 5%),
,COC(=O)NCc1cc(C(C)=NOCc2cccc(C(F)(F)F)c2)ccc1Cl [A-100],A (No diseased area),,
,COC(=O)NCc1cc(C(C)=NOCc2ccc(C(F)(F)F)cc2)ccc1Cl [A-101],A (No diseased area),,
,COC(=O)NCc1cc(C=NOCc2ccccc2)ccc1C [A-112],A (No diseased area),B (Diseased area of less than 5%),
,COC(=O)NCc1cc(C(C)=NOCc2ccccc2)ccc1C [A-113],A (No diseased area),A (No diseased area),
,CON=C(C)c1cccc(CON=C(C)c2ccc(Cl)c(CNC(=O)OC)c2)c1 [A-291],,A (No diseased area),3
72 to 75,"COC(=O)NCc1cc(C(C)=NOCc2cccc(C)n2)ccc1C [A-434, Methyl N-{2-methyl-5-[1-(6-methylpyridin-2-ylmethoxy)iminoethyl]benzyl}carbamate]",,,
